In PubChem BioAssay AID1963843 (Molecular Pharmacology Branch, DTP, NCI, 2024):
pIC50: −log10 of the molar value.

Tested on: 616215-338-R-J1-PDC complex spheroid viability
Assay: Anticancer human tumor 616215-338-R-J1-PDC patient-derived colon adenocarcinoma cell line growth inhibition [POLQ]
Conditions: for pIC50: curve of first compound; for viability, T/C: stronger effect = lower value; active = viability on the fitted dose curve at most 10% of control; inactive = the rest
Procedure: Multicellular complex tumor spheroid response to Polymerase (POL) inhibitors (novobiocin, ART-558, RP6685) in combination with a variety of drugs and investigational agents in selected tumor cell lines
The POL inhibitors (novobiocin, ART-558, and RP6685) were evaluated both individually and in combination with standard of care and investigational anticancer small molecules within a complex spheroid model of solid tumors. . Complex spheroids include a stromal component modeled by human endothelial cells (HUVEC) and fibroblasts modeled by human mesenchymal stem cells (MSCs). The concentration ranges selected for each drug and investigational agent were based upon clinically achievable concentrations if the clinical Cmax of the agent was known.
Compounds. The drugs and investigational agents: novobiocin (NSC847541), ART-558 (NSC835418), RP-6685 (NSC848927), peposertib (NSC802822), ceralasertib (NSC780249), elimusertib (NSC800525), camonsertib (NSC841442), AZD-1390 (NSC803789), olaparib (NSC753686), talazoparib (NSC767125), rucaparib (NSC756644), sotorasib (NSC818433), MRTX-1133 (NSC836407), SN-38 (NSC673596), topotecan (NSC609699), epotoside (NSC141540), doxorubicin (NSC123127), gemcitabine (NSC613327), 5-fluorouracil (NSC19893), paclitaxel (NSC125973), vemurafenib (NSC761431), MSA-2 (NSC828583), SN-011 (NSC837082), adavosertib (NSC754352), prexasertib (NSC758257), carboplatin (NSC241240) and oxaliplatin (NSC266046), were obtained from the National Cancer Institute (NCI) Developmental Therapeutics Program Chemical Repository (21). The FDA-approved anticancer drug set is available from the Developmental Therapeutics Program at https://dtp.cancer.gov/organization/dscb/obtaining/. […] The stock solutions were prepared in dimethyl sulfoxide (DMSO, Sigma-Aldrich, St. Louis, MO, cat. D2650), except for the platinum compounds which were prepared in saline (Quality Biological, Gaithersburg, MD, cat. 114-055-101), at 800-fold the tested concentration and stored at -70 degrees C prior to their use. All drugs and investigational agents were tested over a range starting from a high concentration at or near the clinical Cmax and decreasing in half-log increments. If the clinical Cmax for an agent had not been determined, the highest concentration tested was 10 microM, except for SN-38, which was tested at a high concentration of 1 microM.
Cell Culture. All cells were maintained in an incubator at 37 degrees C and 5% CO2 with 95% humidity. The PDC lines were cultured according to standard operating procedures established by the NCI PDMR (https://pdmr.cancer.gov). Table 3 of the manuscript, lists the cell lines along with the number of the three cell types plated to form the mct-spheroids and media for tumor cell growth. After thawing, all PDC lines, except 997537-175-T-J1-PDC and 415267-285-R-J2-PDC, were cultured in Matrigel-coated flasks prepared with a working solution of 1X Ham's F-12 nutrient mix, without supplementation (Thermo Fisher Scientific, cat. 11765054), 100 U/mL penicillin-streptomycin (Thermo Fisher Scientific, cat. 15140122), and 2.5% Matrigel (Corning Inc., Corning, NY, cat. 354248) for the first three passages. The two PDC lines 997537-175-T-J1-PDC and 415267-285-R-J2-PDC were cultured on uncoated flasks. The 857933-349-R-J2-PDC line was cultured in 6C/Colon 1B media containing advanced DMEM/F-12 (Thermo Fisher Scientific, cat. 12634028), 10 mM HEPES (Thermo Fisher Scientific, cat. 15630080), 1X GlutaMAX supplement (Thermo Fisher Scientific, cat. 35050061), 0.1 mg/mL primocin (InvivoGen, San Diego, CA, cat. ant-pm-2), 10% defined fetal bovine serum, heat inactivated (HyClone Laboratories Inc., Logan, UT, cat. SH30070.03HI), 50% L-WRN conditioned media (ATCC, cat. CRL-3276), 1.25 mM N-Acetyl-L-cysteine (Sigma-Aldrich, cat. A9165), 10 mM nicotinamide (Sigma-Aldrich, cat. N0636), 1X B-27 supplement (Thermo Fisher Scientific, cat. 17504044), 1X N-2 supplement (Thermo Fisher Scientific, cat. […]

[1] = second compound 0.0316 µM, first compound 0.0316 µM
[2] = second compound 0.0316 µM, first compound 0.1 µM
[3] = second compound 0.1 µM, first compound 0.0316 µM
[4] = second compound 0.1 µM, first compound 0.1 µM
[5] = second compound 0.316 µM, first compound 0.0316 µM
[6] = second compound 0.316 µM, first compound 0.1 µM
[7] = second compound 1 µM, first compound 0.0316 µM
[8] = second compound 1 µM, first compound 0.1 µM
[9] = second compound 3.16 µM, first compound 0.0316 µM
[10] = second compound 3.16 µM, first compound 0.1 µM
[11] = second compound 10 µM, first compound 0.0316 µM
[12] = second compound 10 µM, first compound 0.1 µM
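Note: spheroids exposed to compounds for one week before readout.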
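Throughout, for viability, T/C: percent viability relative to DMSO vehicle wells taken as 100%.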

CC[C@@]1(O)C(=O)OCc2c1cc1n(c2=O)Cc2cc3c(CN(C)C)c(O)ccc3nc2-1 + Cc1cccc(N(C)C(=O)C2C(O)CCN2c2nc(C)cc(C(F)(F)F)c2C#N)c1
< 7.00: pIC50 (second compound 0.0316 µM) | pIC50 (second compound 0.1 µM) | pIC50 (second compound 0.316 µM) | pIC50 (second compound 1 µM) | pIC50 (second compound 3.16 µM) | pIC50 (second compound 10 µM)
inactive: viability, T/C (second compound 0.0316 µM, first compound 0.000316 µM) 96.5% | viability, T/C (second compound 0.0316 µM, first compound 0.001 µM) 100% | viability, T/C (second compound 0.0316 µM, first compound 0.00316 µM) 97.7% | viability, T/C (second compound 0.0316 µM, first compound 0.01 µM) 101% | viability, T/C [1] 105% | viability, T/C [2] 82.5% | viability, T/C (second compound 0.1 µM, first compound 0.000316 µM) 99.2% | viability, T/C (second compound 0.1 µM, first compound 0.001 µM) 101% | viability, T/C (second compound 0.1 µM, first compound 0.00316 µM) 101% | viability, T/C (second compound 0.1 µM, first compound 0.01 µM) 116% | viability, T/C [3] 107% | viability, T/C [4] 79.6% | viability, T/C (second compound 0.316 µM, first compound 0.000316 µM) 114% | viability, T/C (second compound 0.316 µM, first compound 0.001 µM) 104% | viability, T/C (second compound 0.316 µM, first compound 0.00316 µM) 92.3% | viability, T/C (second compound 0.316 µM, first compound 0.01 µM) 114% | viability, T/C [5] 96.7% | viability, T/C [6] 84.3% | viability, T/C (second compound 1 µM, first compound 0.000316 µM) 101% | viability, T/C (second compound 1 µM, first compound 0.001 µM) 93.5% | viability, T/C (second compound 1 µM, first compound 0.00316 µM) 112% | viability, T/C (second compound 1 µM, first compound 0.01 µM) 112% | viability, T/C [7] 103% | viability, T/C [8] 77.2% | viability, T/C (second compound 3.16 µM, first compound 0.000316 µM) 101% | viability, T/C (second compound 3.16 µM, first compound 0.001 µM) 94.2% | viability, T/C (second compound 3.16 µM, first compound 0.00316 µM) 93.2% | viability, T/C (second compound 3.16 µM, first compound 0.01 µM) 101% | viability, T/C [9] 103% | viability, T/C [10] 78.8% | viability, T/C (second compound 10 µM, first compound 0.000316 µM) 100% | viability, T/C (second compound 10 µM, first compound 0.001 µM) 98.9% | viability, T/C (second compound 10 µM, first compound 0.00316 µM) 95.3% | viability, T/C (second compound 10 µM, first compound 0.01 µM) 103% | viability, T/C [11] 97.8% | viability, T/C [12] 64.4%

CCc1cc2c(N3CCc4c(cc(Cn5ccnc5)cc4-c4cn(C)nc4C(F)(F)F)C3=O)ccnc2c(OC)n1 + Cc1cccc(N(C)C(=O)C2C(O)CCN2c2nc(C)cc(C(F)(F)F)c2C#N)c1
5.24: pIC50 (second compound 10 µM)
inactive: viability, T/C [1] 98% | viability, T/C [2] 102% | viability, T/C (second compound 0.0316 µM, first compound 0.316 µM) 86.4% | viability, T/C (second compound 0.0316 µM, first compound 1 µM) 69.4% | viability, T/C (second compound 0.0316 µM, first compound 3.16 µM) 63.9% | viability, T/C (second compound 0.0316 µM, first compound 10 µM) 46.8% | viability, T/C [3] 107% | viability, T/C [4] 106% | viability, T/C (second compound 0.1 µM, first compound 0.316 µM) 83.2% | viability, T/C (second compound 0.1 µM, first compound 1 µM) 84.2% | viability, T/C (second compound 0.1 µM, first compound 3.16 µM) 52.7% | viability, T/C (second compound 0.1 µM, first compound 10 µM) 46.3% | viability, T/C [5] 106% | viability, T/C [6] 102% | viability, T/C (second compound 0.316 µM, first compound 0.316 µM) 94% | viability, T/C (second compound 0.316 µM, first compound 1 µM) 70.8% | viability, T/C (second compound 0.316 µM, first compound 3.16 µM) 54.5% | viability, T/C (second compound 0.316 µM, first compound 10 µM) 43.8% | viability, T/C [7] 113% | viability, T/C [8] 104% | viability, T/C (second compound 1 µM, first compound 0.316 µM) 88.4% | viability, T/C (second compound 1 µM, first compound 1 µM) 74.1% | viability, T/C (second compound 1 µM, first compound 3.16 µM) 58.8% | viability, T/C (second compound 1 µM, first compound 10 µM) 45.2% | viability, T/C [9] 97% | viability, T/C [10] 94.8% | viability, T/C (second compound 3.16 µM, first compound 0.316 µM) 95% | viability, T/C (second compound 3.16 µM, first compound 1 µM) 63% | viability, T/C (second compound 3.16 µM, first compound 3.16 µM) 59.3% | viability, T/C (second compound 3.16 µM, first compound 10 µM) 41.3% | viability, T/C [11] 98% | viability, T/C [12] 88.6% | viability, T/C (second compound 10 µM, first compound 0.316 µM) 90.9% | viability, T/C (second compound 10 µM, first compound 1 µM) 61.7% | viability, T/C (second compound 10 µM, first compound 3.16 µM) 60.7% | viability, T/C (second compound 10 µM, first compound 10 µM) 43.5%
5.32: pIC50 (second compound 0.316 µM)
5.18: pIC50 (second compound 1 µM)
5.06: pIC50 (second compound 0.0316 µM)
5.41: pIC50 (second compound 3.16 µM)
5.20: pIC50 (second compound 0.1 µM)
